Measured values reported in patent US7834013B2, “Aminophenylcyclopropyl carboxylic acids and derivatives as agonists to GPR40” (GlaxoSmithKline LLC, priority 2003, dated 2010).
Structures can show the parent of a compound that is named as a salt.

What follows are compounds tested against T1, GPR40 (Homo sapiens, UniProt O14842) (assay: GPR40 SAR Primary Assay (Elk-1/Gal4-luc+ reporter, luciferase activity)). Conditions: stable GPR40 Elk-1/Gal4-luc+ CHO cell line, 5 hours incubation.
T1 construct: expressed in transfected cells
T1 sequence (O14842 whole entry, the tested form may be a part): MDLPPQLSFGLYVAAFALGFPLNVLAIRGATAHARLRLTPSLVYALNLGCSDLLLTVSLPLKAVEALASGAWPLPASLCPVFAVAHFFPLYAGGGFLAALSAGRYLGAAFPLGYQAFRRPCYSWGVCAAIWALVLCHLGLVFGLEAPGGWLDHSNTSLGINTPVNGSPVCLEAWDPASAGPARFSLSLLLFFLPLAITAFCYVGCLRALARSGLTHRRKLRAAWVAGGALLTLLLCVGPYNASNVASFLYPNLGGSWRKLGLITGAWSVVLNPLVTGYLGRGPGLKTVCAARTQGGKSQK
Type: cell-based
Protocol: An existing stable GPR40 Elk-1/Gal4-luc^+ CHO cell line generated by electroporation and functional cloning was used. Cells were maintained in a humidified incubator at 37° C./5% CO2 in complete media containing DMEM/F12 (Gibco, #11039-021), 5% FBS (Gibco, #16140-071) and 1% Glutamine (Gibco, #25030-081). Cell maintenance passages were made at 1:40 dilution every 3-4 days. Forty eight hours prior to assay, 15e6 cells were added to 200 ml of complete media then seeded into a 1200 cm^2-cell factory and returned to a humidified incubator at 37° C./5% CO2. 20 hours prior to assay, the growth media was removed and replaced with 200 ml of serum-free DMEM/F12 to quiesce background activity. At the time of assay, cells were harvested using non-enzymatic cell dissociation solution (Sigma, #C-5914), washed and counted. The 20 hour starve media was collected and used as condition media for cell assay plating. Cells were plated at a concentration of 10,000 cells/well in a total well volume of […] in black 96-well clear bottom polystyrene plates (CoStar, #3904). Test compounds were prepared as serial dilutions in 100% DMSO, then 1 ul was delivered to each well resulting in a final concentration of 1% DMSO. The plates were then returned to a humidified incubator at 37° C./5% CO2 for 5 hours. Following the incubation, the medium was replaced with 50 ul of a 1:1 mixture of SteadyGlo™ (Promega, #E2550) and dPBS containing 1 mM CaCl2 and 1 mM MgCl2. Plates were then sealed and subjected to dark adaptation at room temperature for 10 minutes. Luciferase activity was measured on a Packard TopCount™ microplate scintillation counter using 2 seconds per well count time.
Data analysis was performed using standard methods.
The Normalization Equation used was 100*(Unknown compound response−Background response)/(Agonist Max response−Background response).
The Curve Fit Function used was y=((Vmax*x^n)/(K^n+x^n))+Y2.
A percent max response and pEC50 were recorded for each compound. Although specific pEC50 values are given, these values should be considered exemplary. Those skilled in the art will appreciate the variability in performing and recording the biological activity assays that are herein described. The compounds of the present invention provide a pEC50 of at least 5.0.
Cc1nc(-c2ccc(C(F)(F)F)cc2)sc1CNc1ccc([C@@H]2C[C@H]2C(N)=O)cc1 (racemic) [Example 43, Racemic-(trans)-2-{4-[({4-methyl-2-[4-(trifluoromethyl)phenyl]-1,3-thiazol-5-yl}methyl)amino]phenyl}cyclopropanecarboxamide] showed an EC50 of 20 nM.
In the case of Cc1nc(-c2ccc(C(F)(F)F)cc2)sc1CNc1ccc([C@@H]2C[C@H]2C(=O)NC(C)C)cc1 (racemic) [Example 45, Racemic-(trans)-N-isopropyl-2-{4-[({4-methyl-2-[4-(trifluoromethyl)phenyl]-1,3-thiazol-5-yl}methyl)amino]phenyl}cyclopropanecarboxamide], the EC50 is reported as 10 nM.
Work on Cc1nc(-c2ccc(C(F)(F)F)cc2)sc1CNc1ccc([C@@H]2C[C@H]2C(=O)N(C)C)cc1 (racemic) [Example 46, Racemic-(trans)-N,N-dimethyl-2-{4-[({4-methyl-2-[4-(trifluoromethyl)phenyl]-1,3-thiazol-5-yl}methyl)amino]phenyl}cyclopropanecarboxamide] yielded an EC50 of 63.1 nM.
For O=C(NCc1ccncc1)[C@@H]1C[C@H]1c1ccc(NCc2cccc(Oc3ccccc3)c2)cc1 (racemic) [Example 47, Racemic-(trans)-2-[4-({[3-(phenyloxy)phenyl]methyl}amino)phenyl]-N-(4-pyridinylmethyl)cyclopropanecarboxamide], the EC50 was 10 nM.
COc1ccc(CNC(=O)[C@@H]2C[C@H]2c2ccc(NCc3cccc(Oc4ccccc4)c3)cc2)cc1 (racemic) [Example 48, Racemic-(trans)-N-(4-methoxybenzyl)-2-{4-[(3-phenoxybenzyl)amino]phenyl}cyclopropanecarboxamide] was tested, and the EC50 was 31.6 nM.
O=C(NCc1ccc(C(F)(F)F)cc1)[C@@H]1C[C@H]1c1ccc(NCc2cccc(Oc3ccccc3)c2)cc1 (racemic) [Example 49, Racemic-(trans)-2-{4-[(3-phenoxybenzyl)amino]phenyl}-N-[4-(trifluoromethyl)benzyl]cyclopropanecarboxamide] showed an EC50 of 31.6 nM.
In the case of O=C(NCCN1CCOCC1)[C@@H]1C[C@H]1c1ccc(NCc2cccc(Oc3ccccc3)c2)cc1 (racemic) [Example 50, Racemic-(trans)-N-(2-morpholin-4-ylethyl)-2-{4-[(3-phenoxybenzyl)amino]phenyl}cyclopropanecarboxamide], the EC50 is reported as 251 nM.
O=C(NCC(F)(F)F)[C@@H]1C[C@H]1c1ccc(NCc2cccc(Oc3ccccc3)c2)cc1 (racemic) [Example 51, Racemic-(trans)-2-{4-[(3-phenoxybenzyl)amino]phenyl}-N-(2,2,2-trifluoroethyl)cyclopropanecarboxamide] gave an EC50 of 50.1 nM.
With CC(C)NC(=O)[C@@H]1C[C@H]1c1ccc(NCc2sc(-c3ccc(C(F)(F)F)cc3)nc2C(C)C)cc1 (racemic) [Example 52, Racemic-(trans)-N-isopropyl-2-{4-[({4-isopropyl-2-[4-(trifluoromethyl)phenyl]-1,3-thiazol-5-yl}methyl)amino]phenyl}cyclopropanecarboxamide] the EC50 was 15.8 nM.
O=C(O)[C@@H]1C[C@H]1c1ccc(NCc2cccc(Oc3ccccc3)c2)cc1 (single isomer, unassigned) [Example 25] showed an EC50 of 631 nM.
Cc1nc(-c2ccc(C(F)(F)F)cc2)sc1CNc1ccc([C@@H]2C[C@H]2C(=O)NCc2ccncc2)cc1 (single isomer, unassigned) [Example 38, Enantiomerically Enriched (trans)-2-{4-[({4-methyl-2-[4-(trifluoromethyl)phenyl]-1,3-thiazol-5-yl}methyl)amino]phenyl}-N-(4-pyridinylmethyl)cyclopropanecarboxamide TFA Salt] gave an EC50 of 5.01 nM.
Compound Cc1nc(-c2ccc(C(F)(F)F)cc2)sc1CNc1ccc([C@@H]2C[C@H]2C(N)=O)cc1 (single isomer, unassigned) [Example 39, Enantiomerically Enriched (trans)-2-{4-[({4-methyl-2-[4-(trifluoromethyl)phenyl]-1,3-thiazol-5-yl}methyl)amino]phenyl}cyclopropanecarboxamide] has an EC50 of 10 nM.
Cc1nc(-c2ccc(C(F)(F)F)cc2)sc1CNc1ccc([C@@H]2C[C@H]2C(=O)NO)cc1 (single isomer, unassigned) [Example 41, Enantiomerically Enriched (trans)-N-hydroxy-2-{4-[({4-methyl-2-[4-(trifluoromethyl)phenyl]-1,3-thiazol-5-yl}methyl)amino]phenyl}cyclopropanecarboxamide] was tested, and the EC50 was 6.31 nM.
Cc1nc(-c2ccc(C(F)(F)F)cc2)sc1CNc1ccc([C@@H]2C[C@H]2C(=O)NC2CCC2)cc1 (single isomer, unassigned) [Example 42, Enantiomerically Enriched (trans)-N-cyclobutyl-2-{4-[({4-methyl-2-[4-(trifluoromethyl)phenyl]-1,3-thiazol-5-yl}methyl)amino]phenyl}cyclopropanecarboxamide] gave an EC50 of 7.94 nM.
O=C(O)C1CC1c1ccc(NCc2cccc(Oc3ccccc3)c2)cc1 (single isomer, unassigned; (+)) [Example 26, (+)-(Trans)-2-{4-[(3-phenoxybenzyl)amino]phenyl}cyclopropanecarboxylic Acid] was tested, and the EC50 was 3.98 nM.
Cc1nc(-c2ccc(C(F)(F)F)cc2)sc1CNc1ccc(C2CC2C(=O)O)cc1 (single isomer, unassigned; (+)) [Example 27, (+)-(Trans)-2-{4-[({4-methyl-2-[4-(trifluoromethyl)phenyl]-1,3-thiazol-5-yl}methyl)amino]phenyl}cyclopropanecarboxylic Acid] showed an EC50 of 3.98 nM.
With O=C(O)C1CC1c1ccc(NCc2cccc(Oc3ccc(Cl)c(Cl)c3)c2)cc1 (single isomer, unassigned; (+)) [Example 28a, (+)-(Trans)-2-{4-[({3-[(3,4-dichlorophenyl)oxy]phenyl}methyl)amino]phenyl}cyclopropanecarboxylic Acid Trifluoroacetate] the EC50 was 3.16 nM.
Work on O=C(O)C1CC1c1ccc(NCc2cccc(Oc3ccccc3)c2)cc1Cl (single isomer, unassigned; (+)) [Example 30a, (+)-(Trans)-2-[2-chloro-4-({[3-(phenyloxy)phenyl]methyl}amino)phenyl]cyclopropanecarboxylic Acid] yielded an EC50 of 398 nM.
Work on O=C(O)C1CC1c1cc(F)c(NCc2cccc(Oc3ccccc3)c2)cc1F (single isomer, unassigned; (+)) [Example 31a, (+)-(trans)-2-[2,5-difluoro-4-({[3-(phenyloxy)phenyl]methyl}amino)phenyl]cyclopropanecarboxylic Acid] yielded an EC50 of 501 nM.
For CC(C)NC(=O)C1CC1c1ccc(NCc2cccc(Oc3ccccc3)c2)cc1 (single isomer, unassigned; (+)) [Example 44, (+)-(trans)-N-(1-methylethyl)-2-[4-({[3-(phenyloxy)phenyl]methyl}amino)phenyl]cyclopropanecarboxamide], the EC50 was 10 nM.
Work on Cc1nc(-c2ccc(C(F)(F)F)cc2)sc1CNc1ccc(C2CC2C(=O)O)cc1 (single isomer, unassigned; (-)) [Example 29, (−)-(cis)-2-{4-[({4-methyl-2-[4-(trifluoromethyl)phenyl]-1,3-thiazol-5-yl}methyl)amino]phenyl}cyclopropanecarboxylic Acid] yielded an EC50 of 316 nM.
Work on O=C(O)[C@H]1C[C@@H]1c1ccc(NCc2cccc(Oc3cc(Cl)cc(Cl)c3)c2)cc1 [Example 32, (+)-(trans)-2-{4-[({3-[(3,5-dichlorophenyl)oxy]phenyl}methyl)amino]phenyl}cyclopropanecarboxylic Acid trifluoroacetate] yielded an EC50 of 5.01 nM.
O=C(O)[C@H]1C[C@@H]1c1ccc(NCc2cccc(Oc3cccc(C(F)(F)F)c3)c2)cc1 [Example 33, (+)-(trans)-2-(4-{[(3-{[3-(trifluoromethyl)phenyl]oxy}phenyl)methyl]amino}phenyl)cyclopropanecarboxy lic Acid] showed an EC50 of 25.1 nM.
With Cc1ccc(Oc2cccc(CNc3ccc([C@H]4C[C@@H]4C(=O)O)cc3)c2)cc1 [Example 34, (+)-(trans)-2-{4-[({3-[(4-methylphenyl)oxy]phenyl}methyl)amino]phenyl}cyclopropanecarboxylic Acid Trifluoroacetate] the EC50 was 7.94 nM.
Cc1nc(-c2ccc(C(F)(F)F)cc2)sc1CNc1ccc(C2CC2C(=O)N[C@@H](C)c2ccccc2)cc1 (stereo partly drawn) [Example 40, Enantiomerically Enriched (trans)-2-{4-[({4-methyl-2-[4-(trifluoromethyl)phenyl]-1,3-thiazol-5-yl}methyl)amino]phenyl}-N-[(1S)-1-phenylethyl]cyclopropanecarboxamide] gave an EC50 of 50.1 nM.
